Usually IC50 stands for the concentration that gives 50% inhibition. A word on the solubility: it is how much of the substance goes into solution per volume.

In brackets after ≈: the same amount, converted by molar mass. Like-named read-outs stand apart in the source and are kept apart here.

These results are taken from patent publication US9102701B2, “17-hydroxy-17-pentafluoroethyl-estra-4,9(10)-diene-11-ethynylphenyl derivatives, methods for the production thereof and use thereof for treating diseases” (Bayer Intellectual Property GmbH, priority 2009, dated 2015).

Data set [1] addresses T1, human progesterone receptor B (Homo sapiens, UniProt P06401).
T1 construct: expressed in transfected cells; host or cells: SK-N-MC human neuroblastoma cells, stably transfected with pRChPR-B-neo and pMMTV-LUC
T1 sequence (P06401 1-933): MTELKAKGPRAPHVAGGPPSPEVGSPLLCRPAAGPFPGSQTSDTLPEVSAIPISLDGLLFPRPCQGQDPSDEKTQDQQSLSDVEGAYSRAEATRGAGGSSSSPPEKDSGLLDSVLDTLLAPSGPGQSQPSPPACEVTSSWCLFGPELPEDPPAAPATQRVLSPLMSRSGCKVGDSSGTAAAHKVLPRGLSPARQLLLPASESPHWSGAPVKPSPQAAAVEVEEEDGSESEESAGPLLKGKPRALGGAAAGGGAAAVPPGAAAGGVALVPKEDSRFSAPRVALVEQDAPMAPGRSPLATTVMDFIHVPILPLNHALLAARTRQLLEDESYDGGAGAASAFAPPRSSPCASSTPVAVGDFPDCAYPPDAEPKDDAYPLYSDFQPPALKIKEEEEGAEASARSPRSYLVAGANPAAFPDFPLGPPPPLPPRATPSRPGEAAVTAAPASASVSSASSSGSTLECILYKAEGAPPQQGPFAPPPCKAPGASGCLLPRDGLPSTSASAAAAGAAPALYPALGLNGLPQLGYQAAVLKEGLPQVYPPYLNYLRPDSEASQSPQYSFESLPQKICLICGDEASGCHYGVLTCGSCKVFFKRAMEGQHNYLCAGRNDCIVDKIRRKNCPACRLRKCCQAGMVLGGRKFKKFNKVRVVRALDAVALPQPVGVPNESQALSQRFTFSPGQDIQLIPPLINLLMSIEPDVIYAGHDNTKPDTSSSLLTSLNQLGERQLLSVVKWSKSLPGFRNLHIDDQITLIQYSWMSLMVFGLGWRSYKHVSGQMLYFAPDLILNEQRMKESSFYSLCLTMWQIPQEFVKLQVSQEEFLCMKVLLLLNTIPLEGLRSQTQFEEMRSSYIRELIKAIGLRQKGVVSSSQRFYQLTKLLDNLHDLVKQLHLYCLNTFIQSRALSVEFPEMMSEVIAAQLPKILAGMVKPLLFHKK
In words: Progesterone receptor-antagonistic action in stably transfected SK-N-MC cells, PR-B, MMTV-LUC reporter. The data set is classed as cell-based. The following applies: read-out: IC50 PR-B. In outline: (§1)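 SK-N-MC neuroblastoma cells stably expressing human PR-A or PR-B plus MMTV-LUC reporter, treated 24 h with compound (0.01 nmol/l upward). Antagonism measured against 0.1 nmol/l promegestone; luciferase in lysates as RLU, given as % efficacy and IC50 (agonism as EC50).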

Data set [2] in a line: Solubility in aqueous medium at pH 7.4. The class given is physicochemical.
In data set [3] the target is T2, human progesterone receptor A (Homo sapiens, UniProt P06401).
T2 construct: expressed in transfected cells; host or cells: SK-N-MC human neuroblastoma cells, stably transfected with pRChPR-A-neo and pMMTV-LUC
T2 sequence (P06401 1-769 isoform P06401-2): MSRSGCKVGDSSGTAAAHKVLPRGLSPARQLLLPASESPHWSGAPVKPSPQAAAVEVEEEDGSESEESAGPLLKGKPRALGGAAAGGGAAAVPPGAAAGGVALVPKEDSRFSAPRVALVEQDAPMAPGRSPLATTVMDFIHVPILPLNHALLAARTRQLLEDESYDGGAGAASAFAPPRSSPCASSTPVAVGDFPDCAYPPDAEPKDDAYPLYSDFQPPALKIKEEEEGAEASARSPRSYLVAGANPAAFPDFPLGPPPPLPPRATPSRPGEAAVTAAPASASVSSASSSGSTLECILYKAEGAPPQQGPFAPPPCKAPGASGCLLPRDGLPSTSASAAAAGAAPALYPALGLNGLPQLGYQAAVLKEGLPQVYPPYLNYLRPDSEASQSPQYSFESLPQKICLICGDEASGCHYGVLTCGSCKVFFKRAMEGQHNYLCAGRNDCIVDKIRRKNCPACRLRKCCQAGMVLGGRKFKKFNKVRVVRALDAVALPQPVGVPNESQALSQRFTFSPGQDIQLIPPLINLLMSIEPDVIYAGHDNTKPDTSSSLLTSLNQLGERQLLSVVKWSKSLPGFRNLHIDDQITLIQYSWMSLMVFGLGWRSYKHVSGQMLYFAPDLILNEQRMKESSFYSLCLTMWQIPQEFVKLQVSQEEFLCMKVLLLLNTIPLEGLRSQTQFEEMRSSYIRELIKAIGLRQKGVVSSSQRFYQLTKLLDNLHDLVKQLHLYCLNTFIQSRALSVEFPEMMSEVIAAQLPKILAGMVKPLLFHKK
In words: Progesterone receptor-antagonistic action in stably transfected SK-N-MC cells, PR-A, MMTV-LUC reporter. The data set is classed as cell-based. The following applies: read-out: IC50 PR-A. In outline: as §1

Data set [4] is described as follows: Metabolic stability in human liver microsomes. The following applies: predicted in vivo clearance from liver microsomes, well-stirred model, 1 μM. The data set is classed as in vitro ADME. On the procedure:
Determination of Metabolic Stability in Human and Rat Liver Microsomes
Isolated Human Liver Microsomes (HLM) were Used to Assess the Metabolic Stability of compounds of general formula I.
The incubations were conducted with 2.4 ml of HLM solution (protein content 0.5 mg/ml), 30 μl of the test compound (final concentration 1 μM) and 0.6 ml of the cofactor mixture (═NADPH-generating system composed of 3 IU glucose-6-phosphate dehydrogenase, 14.6 mg glucose-6-phosphate, 1.2 mg NADP) at 37° C. in 100 mM phosphate buffer at pH 7.4. Samples were taken at 6 time points (2-60 min) and precipitated with an equal volume of methanol, and the recovery of the test substances used in the supernatant was determined by LC-MS/MS analysis. The half-life of substance degradation determined therefrom was used to calculate what is called the intrinsic clearance of the substance in the liver microsome preparation.

Take `C[C@]12C[C@H](c3ccc(C#CC(=O)O)cc3)C3=C4CCC(=O)C=C4CCC3C1CC[C@@]2(O)C(F)(F)C(F)(F)F` (stereo partly drawn) [Example 2, [4-((8S,11R,13S,14S,17S)-17-hydroxy-13-methyl-3-oxo-17-pentafluoroethyl-2,3,6,7,8,11,12,13,14,15,16,17-dodecahydro-4H-cyclopenta[a]phenanthren-11-yl)phenyl]propynoic acid]: the IC50 in data set [1] was 16 nM; in data set [3] it was 32 nM. In addition, in data set [2] (aqueous medium under physiological conditions), the “solubility (in words)” value is recorded as “improved solubility”. Besides, the concentration in solution in data set [2] (aqueous medium, pH 7.4, aqueous buffer) (solubility) came to 178 µg/mL (≈ 333 µM). Besides, the “Predicted clearance Human” value in data set [4] is 0 mL/min/kg.

`C[C@]12C[C@H](c3ccc(C#CCOC(=O)NCc4ccccc4)cc3)C3=C4CCC(=O)C=C4CCC3C1CC[C@@]2(O)C(F)(F)C(F)(F)F` (stereo partly drawn) [Example 50, benzylcarbamic acid 3-[4-((8S,11R,13S,14S,17S)-17-hydroxy-13-methyl-3-oxo-17-pentafluoroethyl-2,3,6,7,8,11,12,13,14,15,16,17-dodecahydro-1H-cyclopenta[a]phenanthren-1′-yl)phenyl]prop-2-ynyl ester]: the IC50 in data set [1] is 0.03 nM; in data set [3], 0.01 nM.

In the case of `C[C@]12C[C@H](c3ccc(C#Cc4cccc(S(C)(=O)=O)c4)cc3)C3=C4CCC(=O)C=C4CC[C@H]3[C@@H]1CC[C@@]2(O)C(F)(F)C(F)(F)F` [Example 51, (8S,11R,13S,14S,17S)-17-hydroxy-11-[4-(3-methanesulphonylphenylethynyl)phenyl]-13-methyl-17-pentafluoroethyl-1,2,6,7,8,11,12,13,14,15,16,17-dodecahydrocyclopenta[a]phenanthren-3-one], the IC50 turned out to be 0.1 nM in data set [1] and 0.08 nM in data set [3].

Take `COc1ccc(NC(=O)OCC#Cc2ccc([C@H]3C[C@@]4(C)C(CC[C@@]4(O)C(F)(F)C(F)(F)F)C4CCC5=CC(=O)CCC5=C43)cc2)cc1` (stereo partly drawn) [Example 52, 4-methoxyphenylcarbamic acid 3-[4-((8S,11R,13S,14S,17S)-17-hydroxy-13-methyl-3-oxo-17-pentafluoroethyl-2,3,6,7,8,11,12,13,14,15,16,17-dodecahydro-1H-cyclopenta[a]phenanthren-1′-yl)phenyl]prop-2-ynyl ester]: the IC50 in data set [1] stood at 0.07 nM; in data set [3], 0.01 nM.

On to `CCOC(=O)c1ccc(NC(=O)OCC#Cc2ccc([C@H]3C[C@@]4(C)[C@@H](CC[C@@]4(O)C(F)(F)C(F)(F)F)[C@@H]4CCC5=CC(=O)CCC5=C43)cc2)cc1` [Example 53, 4-{3-[4-((8S,11R,13S,14S,17S)-17-hydroxy-13-methyl-3-oxo-17-pentafluoroethyl-2,3,6,7,8,11,12,13,14,15,16,17-dodecahydro-1H-cyclopenta[a]phenanthren-11-yl)phenyl]prop-2-ynyloxycarbonylamino}benzoic acid ethyl ester], for which the IC50 in data set [1] was 0.19 nM; in data set [3] it was 0.16 nM.

With `C[C@]12C[C@H](c3ccc(C#CCOC(=O)Nc4ccc(N5CCCCC5)cc4)cc3)C3=C4CCC(=O)C=C4CCC3C1CC[C@@]2(O)C(F)(F)C(F)(F)F` (stereo partly drawn) [Example 54, (4-piperidin-1-ylphenyl)carbamic acid 3-[4-((8S,11R,13S,14S,17S)-17-hydroxy-13-methyl-3-oxo-17-pentafluoroethyl-2,3,6,7,8,11,12,13,14,15,16,17-dodecahydro-1H-cyclopenta[a]phenanthren-1′-yl)phenyl]prop-2-ynyl ester], the 50% inhibitory concentration (IC50) was found to be 0.09 nM in data set [1] and 0.1 nM in data set [3].

Regarding `C[C@]12C[C@H](c3ccc(C#CCOC(=O)Nc4ccc(Cl)cc4)cc3)C3=C4CCC(=O)C=C4CCC3C1CC[C@@]2(O)C(F)(F)C(F)(F)F` (stereo partly drawn) [Example 55, 4-chlorophenylcarbamic acid 3-[4-((8S,11R,13S,14S,17S)-17-hydroxy-13-methyl-3-oxo-17-pentafluoroethyl-2,3,6,7,8,11,12,13,14,15,16,17-dodecahydro-1H-cyclopenta[a]phenanthren-1′-yl)phenyl]prop-2-ynyl ester], the half-inhibitory concentration (IC50) in data set [1] amounted to 0.2 nM; in data set [3], 0.26 nM.

For `C[C@]12C[C@H](c3ccc(C#Cc4ccc(S(C)(=O)=O)cc4)cc3)C3=C4CCC(=O)C=C4CC[C@H]3[C@@H]1CC[C@@]2(O)C(F)(F)C(F)(F)F` [Example 56, (8S,11R,13S,14S,17S)-17-hydroxy-11-[4-(4-methanesulphonylphenylethynyl)phenyl]-13-methyl-17-pentafluoroethyl-1,2,6,7,8,11,12,13,14,15,16,17-dodecahydrocyclopenta[a]phenanthren-3-one], the IC50 in data set [1] was determined as 0.08 nM; in data set [3] (antagonistic potency vs 0.1 nmol/l promegestone, SK-N-MC cells, 24 hours), 0.01 nM.

For the molecule `C[C@]12C[C@H](c3ccc(C#CCOC(=O)Nc4cccnc4)cc3)C3=C4CCC(=O)C=C4CC[C@H]3[C@@H]1CC[C@@]2(O)C(F)(F)C(F)(F)F` [Example 57, 3-pyridylcarbamic acid 3-[4-((8S,11R,13S,14S,17S)-17-hydroxy-13-methyl-3-oxo-17-pentafluoroethyl-2,3,6,7,8,11,12,13,14,15,16,17-dodecahydro-1H-cyclopenta[a]phenanthren-1′-yl)phenyl]prop-2-ynyl ester], the IC50 in data set [1] is 0.08 nM; in data set [3] it was 0.01 nM.

As for `CC(C)(C)NC(=O)OCC#Cc1ccc([C@H]2C[C@@]3(C)C(CC[C@@]3(O)C(F)(F)C(F)(F)F)C3CCC4=CC(=O)CCC4=C32)cc1` (stereo partly drawn) [Example 58, tert-butylcarbamic acid 3-[4-((8S,11R,13S,14S,17S)-17-hydroxy-13-methyl-3-oxo-17-pentafluoroethyl-2,3,6,7,8,11,12,13,14,15,16,17-dodecahydro-1H-cyclopenta[a]phenanthren-1′-yl)phenyl]prop-2-ynyl ester], the IC50 in data set [1] was found to be 0.01 nM; in data set [3], 0.09 nM.

Take `CC(C)(C)c1ccc(NC(=O)OCC#Cc2ccc([C@H]3C[C@@]4(C)C(CC[C@@]4(O)C(F)(F)C(F)(F)F)C4CCC5=CC(=O)CCC5=C43)cc2)cc1` (stereo partly drawn) [Example 59, 4-tert-butylphenylcarbamic acid 3-[4-((8S,11R,13S,14S,17S)-17-hydroxy-13-methyl-3-oxo-17-pentafluoroethyl-2,3,6,7,8,11,12,13,14,15,16,17-dodecahydro-1H-cyclopenta[a]phenanthren-1′-yl)phenyl]prop-2-ynyl ester]: the IC50 in data set [1] came out at 1.2 nM; in data set [3], 0.7 nM.
